Assay results: patent US7528107B2, “Methods of treating inflammation in mammalian tissues comprising administering human alpha-defensins” (Auburn University, priority 2005, dated 2009)
Entries after “also recorded” stand apart in the source; their conditions may differ.

How the values were obtained:
Type in all cases: cell-based
[1] = system: IL-1β release from human monocytes; assay: ATP mediated proIL-1β / mature IL-1β release from LPS-activated human monocytes (FIG. 2, FIG. 3); details: for processing of proIL-1β after it is released extracellularly: LPS-activated human monocytes treated with ATP, then α-defensins; for ATP-mediated IL-1β release from human monocytes: summary statement
Experimental: (§1) Lipopolysaccharide (LPS) activated, ^35S-methionine-labeled human monocytes treated with human α-defensins HNP-1 or HD-5 in the presence and absence of ATP were examined. Media and cell-associated fractions were harvested separately and IL-1β was recovered from each by immunoprecipitation. The resulting immuno-precipitates were analyzed by SDS-PAGE and autoradiography. Referring now to FIG. 2, in the absence of ATP, LPS activated monocytes released about 10% of ^35S-methionine-labeled proIL-1β (31 kDa) into the media, but no mature (17 kDa) IL-1β was detected. As expected, addition of ATP to the LPS-activated monocyte culture led to the release of 90% of newly synthesized proIL-1β from the cell and more than 90% of the proIL-1β was processed to mature IL-1β and detected in the media.
(§2) Peripheral blood monocytes where isolated from healthy volunteers and patients with inflammatory bowel disease and suspended in monocyte maintenance medium (RPMI 1640 medium, 5% FBS 25 mM HEPES and 1% Pen/Strep). Blood samples from healthy volunteers were collected at the Auburn University Medical Clinic under an approved protocol. Blood samples from inflammatory bowel disease patients were provided by Dr. W. Park McGehee of Internal Medicine Associates of Opelika, Ala., U.S.A.
(§3) Monocytes were first primed with lipopolysaccharides (LPS). Monocytes were allowed to adhere for two hours, after which medium supernatants were discarded. Attached cells were rinsed twice with maintenance medium and incubated in 1 ml of maintenance medium overnight at 37° C. in a 5% CO2 environment. The following morning LPS was added to some walls to achieve a final concentration of 10 ng/ml and the cultures were activated for two hours at 37° C. The media was then removed and 1 ml of fresh medium (RPMI 1640 containing 1% FVS 25 mM HEPES and 5 mM NaHCO3) was added to each well. These LPS-activated monocytes where then treated with ATP and subsequently, monocytes were selectively treated with α-defensins for interleukin-1β post transitional processing and release studies.
Human α-defensin HNP-1 was obtained from Peptide International of Louisville, Ky., U.S.A. Recombinant human α-defensin HD-5 was provided by Dr. Edith Porter of California State University, Los Angeles, U.S.A. The quality of the synthetic peptides were verified by their anti-bacterial activity. Synthetic human α-defensin HNP-1 was further purified by HPLC and compared to the natural HNP-1 by acid-urea PAGE. LPS-activated human monocytes were treated with 0, 1, 10 and 100 micrograms at 37° C. for three hours. It was also treated with 2 mm ATP for IL-1β maturation. Supernatants were then collected after a 5 minute centrifugation in microphage tubes. The concentration of mature IL-1β and the supernatants was quantified by ELISA(R&D Systems). Because the ELISA is reported by the manufacturer to recognize both pro and mature IL-1β species, presence of proIL-1β and mature IL-1β in the supernatant and cell lysates was also determined by western blot analysis. Briefly, proteins were precipitated from the supernatants by addition of trichloroacetic acid (TCA: 7.5% final concentration) and cholic acid (0.1% final concentration) to each sample. The percipate proteins were washed twice with 100% acetone to extract residual TCA and dissolved in 0.1 ml of SDS-PAGE sampled buffer. The cells where then washed once with PBS and lysed into 0.2 ml of lysis washed once with PBS and lysed into 0.2 ml of lysis buffer (25 mM HEPES 300 mM NaCl 1.5 mM MgCl2, 0.2 mM EDTA, 1% triton X-100, 2 mg/ml leupeptin and 10 mg/ml PMF). Cell lysates and TSA precipitated proteins from the supernatants where then subjected to 12% SDS-PAGE gels and then transferred to PVDV membranes for western blot analysis. IL-1β was probed with goat anti-IL-1β antibody and detected with the rabbit anti-goat IgG-horesradish peroxidase conjugate. […]

[2] = system: IL-1β release from human monocytes; assay: as above
[3] = system: IL-1β release from human monocytes; assay: proIL-1β / mature IL-1β release from LPS-activated human monocytes (FIG. 2); details: for mature IL-1β in LPS activated cells / proIL-1β in LPS activated cells: overall statement, no concentration given; for LPS-mediated IL-1β release from human monocytes: summary statement
Experimental: as §1, §2, §3
Human α-defensin HNP-1 was obtained from Peptide International of Louisville, Ky., U.S.A. Recombinant human α-defensin HD-5 was provided by Dr. Edith Porter of California State University, Los Angeles, U.S.A. The quality of the synthetic peptides were verified by their anti-bacterial activity. Synthetic human α-defensin HNP-1 was further purified by HPLC and compared to the natural HNP-1 by acid-urea PAGE. LPS-activated human monocytes were treated with 0, 1, 10 and 100 micrograms at 37° C. for three hours. It was also treated with 2 mm ATP for IL-1β maturation. Supernatants were then collected after a 5 minute centrifugation in microphage tubes. The concentration of mature IL-1β and the supernatants was quantified by ELISA(R&D Systems). Because the ELISA is reported by the manufacturer to recognize both pro and mature IL-1β species, presence of proIL-1β and mature IL-1β in the supernatant and cell lysates was also determined by western blot analysis. Briefly, proteins were precipitated from the supernatants by addition of trichloroacetic acid (TCA: 7.5% final concentration) and cholic acid (0.1% final concentration) to each sample. The percipate proteins were washed twice with 100% acetone to extract residual TCA and dissolved in 0.1 ml of SDS-PAGE sampled buffer. The cells where then washed once with PBS and lysed into 0.2 ml of lysis washed once with PBS and lysed into 0.2 ml of lysis buffer (25 mM HEPES 300 mM NaCl 1.5 mM MgCl2, 0.2 mM EDTA, 1% triton X-100, 2 mg/ml leupeptin and 10 mg/ml PMF). Cell lysates and TSA precipitated proteins from the supernatants where then subjected to 12% SDS-PAGE gels and then transferred to PVDV membranes for western blot analysis. IL-1β was probed with goat anti-IL-1β antibody and detected with the rabbit anti-goat IgG-horesradish peroxidase conjugate.

[4] = system: IL-1β release from human monocytes
[5] = addition of ATP to the LPS-activated monocyte culture, 35S-methionine label
[6] = FIG. 2 column 3, 20 ng/ml LPS + ATP + YVAD-CMK 100 μM
[7] = FIG. 2 column 7, 10 ng/ml LPS 2 hours
[8] = FIG. 2 columns 8 and 9, increase of 20-50 mg HNP-1
[9] = overall statement, no concentration given
[10] = physiological concentrations of 5 ug to 100 ug/ml
[11] = FIG. 3 columns 2-4, 20-100 μg/ml of HNP-1, 1 mM ATP, 3 hours
[12] = FIG. 3 columns 5 and 6, 20 and 100 μg/ml of HD-1, 1 mM ATP, 3 hours

Row | Compound | mature IL-1β in LPS activated cells [3] | proIL-1β in LPS activated cells [3] | LPS-mediated IL-1β release from human monocytes [3] | processing of proIL-1β after it is released extracellularly [1] | ATP mediated proIL-1β release [1, 9] | ATP mediated proIL-1β release [1, 10] | ATP-mediated IL-1β release from human monocytes [1] | Staphylococcus aureus alpha-toxin-mediated IL-1β release from human monocytes [4] | other results
1 | Nc1ncnc2c1ncn2[C@@H]1O[C@H](COP(=O)(O)OP(=O)(O)OP(=O)(O)O)[C@@H](O)[C@H]1O [ATP, Adenosine triphosphate, reference compound] |  |  |  |  |  |  |  |  | proIL-1β processed to mature IL-1β and detected in the media [1, 5]: more than 90%; release of newly synthesized proIL-1β from the cell [1, 5]: 90%
2 | CC(=O)N[C@@H](Cc1ccc(O)cc1)C(=O)N[C@H](C(=O)N[C@@H](C)C(=O)N[C@@H](CC(=O)O)C(=O)CCl)C(C)C [YVAD-CMK, reference compound] |  |  |  |  |  |  |  |  | mature IL-1β produced (western blot) [2, 6]: no mature IL-1β proteins; proIL-1β produced (western blot) [2, 6]: substantial amount of proIL-1β
3 | human neutrophil defensin 1 [HNP-1] | substantially completely block | inhibit; also recorded: substantially completely block | blocks | does not appear to affect | blocked in a dose dependant manner; also recorded: block ATP mediated proIL-1β release in a dose dependant manner | blocked ATP mediated proIL-1β release in a dose dependant manner | blocks | blocks | proIL-1β production ([3]; 20 ug/ml of HNP-1, FIG. 2): sufficient to block; mature IL-1β (western blot) [3, 7]: no mature IL-1β; proIL-1β (western blot) [3, 7]: some proIL-1β; mature IL-1β (western blot) [3, 8]: no mature IL-1β proteins were produced; proIL-1β (western blot) [3, 8]: no proIL-1β; mature IL-1β from ATP activated cells [2, 11]: inhibited in a dose dependant manner; proIL-1β release from ATP activated cells [2, 11]: no proIL-1β is released
4 | human α-defensin 5 (ATCYCRTGRCATRESLSGVCEISGRLYRLCCR; ALPHA DEFENSIN HD-5; listed as Homo sapiens) [Recombinant human α-defensin produced by Paneth cells] | substantially completely block | inhibit; also recorded: substantially completely block | blocks | does not appear to affect | blocked in a dose dependant manner; also recorded: block ATP mediated proIL-1β release in a dose dependant manner | blocked ATP mediated proIL-1β release in a dose dependant manner | blocks | blocks | release of proIL-1β from the LPS-activated monocyte culture ([3]; 10 ug/ml of HD-5, FIG. 2): completely blocked; proIL-1β expressed (western blot) ([3]; FIG. 2 columns 4, 5, 6, increasing amount of HD-5, 4 million cell equivalents activated with LPS): no proIL-1β; mature IL-1β from ATP activated human monocytes [2, 12]: inhibited in a dose dependant manner; proIL-1β release from ATP activated human monocytes [2, 12]: no proIL-1β is released
